This note sets out measurements from patent US6423335B1, “Modified milk powder composition” (priority 1999, dated 2002).

Holding throughout (assay type): in vivo, rats (the Donryu strain)
Data set [1] is described as follows: Low protein diet feeding in rats: body weight, weight of tissues, BUN, blood profile (Example 1). Conditions: for efficiency of protein utilization of feed / feed efficiency: versus 3% protein diet group; for level of platelets: versus suppression in 3% protein diet group. The text has this: (§1) Four-week-age male rats (the Donryu strain) were fed 20% protein diet for one week. Then, glutamine (Gln) and glutamic acid (Glu) each were mixed into 3% protein diet at the level of 5% (w/w) and offered to the rats for three weeks. Also, a 20% protein diet group and a 3% protein diet group were set as controls. Upon each rat, body weight, weight of tissues, blood urea nitrogen (BUN), the level of leukocytes, the level of erythrocytes, hematocrit, the level of platelets, and production of TNF-α by peritoneal macrophage as an index of immune response were determined.

Data set [2] can be described thus: Commercial modified milk powder feeding in rats: body weight, weight of tissues, BUN, blood profile (Example 2). Conditions: two weeks. From the text:
(§2) Then, using commercial modified milk powder (milk serum protein, soybean oil, lactose, and various vitamins and minerals were mixed; level of proteins was from 12 to 13% by weight) as a control, glutamine ([…] became 2, 5, 8, or 40%), and each diet was offered (free ingestion) for two weeks. Upon each rat, body weight, weight of tissues, blood urea nitrogen (BUN), the level of leukocytes, the level of erythrocytes, hematocrit, the level of platelets, and production of TNF-α by peritoneal macrophage as an index of immune response were measured.

The test system of data set [3] is peritoneal macrophage. Description: Production of TNF-α by peritoneal macrophage as an index of immune response (Example 2). Conditions: two weeks.
Description: as §2

Data set [4] concerns peritoneal macrophage. Description: Production of TNF-α by peritoneal macrophage as an index of immune response (Example 1). The following applies: 5% (w/w) in 3% protein diet, three weeks; versus suppression in 3% protein diet group.
Description: as §1

Where [5] appears, read: 5% (w/w) in 3% protein diet, three weeks.
Where [6] appears, read: male rats, 5% (w/w) in 3% protein diet, three weeks.
The mark [7] stands for this setting: 0.3% Gln in modified milk powder.
[8] abbreviates: 0.65% Gln in modified milk powder.
Where [9] appears, read: 1.5% Gln group, modified milk powder.

`NC(=O)CC[C@H](N)C(=O)O` [Gln, glutamine]: the “remarkable decrease of body weight on low protein diet” value in data set [1] (5% (w/w) in 3% protein diet, three weeks, compared with 3% protein diet group) was “this phenomenon was observed”. In data set [1] (setting [5]), the “efficiency of protein utilization of feed” value is “higher than those in the 3% protein diet group”, the feed efficiency entry was “higher than those in the 3% protein diet group” and the level of platelets result is on record as “improvement was observed”. In addition, the “Body weight at the end of experiment” value in data set [1] (setting [6]) is on record as 200.2 ± 3.1. The compound further showed a Blood urea nitrogen in data set [1] (rat, in vivo) of 18.9 ± 2.1 mg/dL. Further, in data set [2] (setting [7]), the Blood urea nitrogen was found to be 20.5 mg/dL; the “Body weight at the end of experiment” value amounted to 233.1; the “body weight and any of the other indexes versus control group (Gln 0%)” value was “no difference”. In addition, in data set [2] (setting [8]), the Blood urea nitrogen was 22.1 mg/dL, the “Body weight at the end of experiment” value amounted to 238.2 and the “body weight versus control group” value was “a slight difference”. In data set [2] (1% Gln in modified milk powder), the Blood urea nitrogen was found to be 23.4 mg/dL and the “Body weight at the end of experiment” value is 241.7. In data set [2] (setting [9]), the “body weight as compared with the control group” value is given as “there were observed differences” and the “level of platelets as compared with the control group” value is listed as “there were observed differences”. For the same compound, in data set [2] (5% Gln in modified milk powder), the Blood urea nitrogen stood at 24.1 mg/dL and the “Body weight at the end of experiment” value was 245.8. In the data set on peritoneal macrophage [3] (setting [8]), the “production of TNF-α by peritoneal macrophage versus control group” value is “higher than that at the control group”. In addition, the “production of TNF-α by peritoneal macrophage as compared with the control group” value in the data set on peritoneal macrophage [3] (setting [9]) is listed as “there were observed differences”. In the data set with peritoneal macrophage [4], the “production of TNF-α by peritoneal macrophage” value was “improvement was observed”.

Regarding `N[C@@H](CCC(=O)O)C(=O)O` [Glu, glutamic acid], in data set [1] (setting [5]), the “efficiency of protein utilization of feed” value is recorded as “this beneficial phenomenon was not observed”, the feed efficiency result is recorded as “this beneficial phenomenon was not observed” and the level of platelets entry is listed as “no improvement”. In addition, in data set [1] (setting [6]), the Blood urea nitrogen was 18.8 ± 2.9 mg/dL and the “Body weight at the end of experiment” value was 180.5 ± 3.8. Besides, in the data set on peritoneal macrophage [4], the “production of TNF-α by peritoneal macrophage” value was “no improvement”.
